Like-named read-outs stand apart in the source and are kept apart here.
Key:
Assay in all cases: biochemical
Type in all cases: binding
[1] = target: T1, receptors in rat forebrain (mainly α4β2) (Rattus norvegicus, UniProt P09483+P12390)
T1 construct: from tissue; host or cells: rat forebrain homogenate
Source text: (§1) In order to assess the steric and hydropathic effects of the C-5 substituents of the pyridine on the binding affinity and subtype-selectivity at neuronal nicotinic acetylcholine receptors. […] The binding affinity ratios for a ligand, calculated from its affinities at an α subunit paired with either the β2 osubunit or the β4 subunit, represents a measure of the selectivity of that ligand with regard to the β subunits.
In Vitro Inhibition of ^3H-Epibatidin Binding
The high affinity binding site for ^3H-epibatidin is most certainly binding to the α4β2 subtype of nicotinic receptors. The identity of the low affinity site is still believed to be unknown.
Tissue preparation: Preparations may be performed at 0-4° C. unless otherwise indicated. […] The tissue suspension may then be centrifuged at 27,000×g for 10 min. The supernatant is then discarded and the pellet may then be washed three times by centrifugation at 27,000×g for 10 min in 20 mL fresh buffer, and the final pellet may be resuspended in fresh buffer (400 mL per g of original tissue) and used for binding assays.
Assay: Aliquots of 2.0 mL homogenate may be added to 0.100 mL of test solution and 0.100 mL of ^3H-epibatidin (0.3 nM, final concentration), mixed and incubated for 60 min at room temperature. […] The amount of radioactivity on the filters may be determined by conventional liquid scintillation counting. Specific binding is total binding minus non-specific binding.

α3β4 nAChR subtype = target: T2, α3β4 nAChR subtype (Rattus norvegicus, UniProt P04757+P12392)
T2 construct: expressed in transfected cells
T2 sequence (P04757 26-499): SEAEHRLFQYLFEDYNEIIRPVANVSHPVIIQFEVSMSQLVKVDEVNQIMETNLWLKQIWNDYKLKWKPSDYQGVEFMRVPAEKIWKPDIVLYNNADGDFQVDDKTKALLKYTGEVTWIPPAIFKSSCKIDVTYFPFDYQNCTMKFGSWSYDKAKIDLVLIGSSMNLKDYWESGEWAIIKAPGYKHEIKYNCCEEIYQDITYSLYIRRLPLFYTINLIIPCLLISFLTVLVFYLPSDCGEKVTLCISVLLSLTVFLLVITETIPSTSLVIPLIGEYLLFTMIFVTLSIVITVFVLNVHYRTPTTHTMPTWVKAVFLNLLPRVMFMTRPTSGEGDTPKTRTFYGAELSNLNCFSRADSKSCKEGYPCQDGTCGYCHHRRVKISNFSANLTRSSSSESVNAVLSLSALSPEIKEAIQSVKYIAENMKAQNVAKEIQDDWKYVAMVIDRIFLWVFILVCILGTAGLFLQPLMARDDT
T2 sequence (P12392 21-495): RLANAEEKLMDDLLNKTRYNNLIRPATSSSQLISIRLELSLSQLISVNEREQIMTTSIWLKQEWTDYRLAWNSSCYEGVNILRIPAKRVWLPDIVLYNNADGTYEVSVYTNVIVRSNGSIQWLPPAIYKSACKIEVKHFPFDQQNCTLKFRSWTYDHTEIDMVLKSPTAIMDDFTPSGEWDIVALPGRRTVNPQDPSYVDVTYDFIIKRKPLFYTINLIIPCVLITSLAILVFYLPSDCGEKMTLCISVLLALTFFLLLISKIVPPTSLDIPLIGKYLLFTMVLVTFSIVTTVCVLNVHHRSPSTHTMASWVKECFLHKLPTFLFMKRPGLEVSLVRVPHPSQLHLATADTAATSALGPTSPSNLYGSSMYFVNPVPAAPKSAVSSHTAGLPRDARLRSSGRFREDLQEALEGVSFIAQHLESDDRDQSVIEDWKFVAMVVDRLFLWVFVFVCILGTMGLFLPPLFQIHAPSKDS
Source text: as §1

α4β2 nAChR subtype = target: T3, α4β2 nAChR subtype (Rattus norvegicus, UniProt P09483+P12390)
T3 construct: expressed in transfected cells
T3 sequence (P12390 25-500): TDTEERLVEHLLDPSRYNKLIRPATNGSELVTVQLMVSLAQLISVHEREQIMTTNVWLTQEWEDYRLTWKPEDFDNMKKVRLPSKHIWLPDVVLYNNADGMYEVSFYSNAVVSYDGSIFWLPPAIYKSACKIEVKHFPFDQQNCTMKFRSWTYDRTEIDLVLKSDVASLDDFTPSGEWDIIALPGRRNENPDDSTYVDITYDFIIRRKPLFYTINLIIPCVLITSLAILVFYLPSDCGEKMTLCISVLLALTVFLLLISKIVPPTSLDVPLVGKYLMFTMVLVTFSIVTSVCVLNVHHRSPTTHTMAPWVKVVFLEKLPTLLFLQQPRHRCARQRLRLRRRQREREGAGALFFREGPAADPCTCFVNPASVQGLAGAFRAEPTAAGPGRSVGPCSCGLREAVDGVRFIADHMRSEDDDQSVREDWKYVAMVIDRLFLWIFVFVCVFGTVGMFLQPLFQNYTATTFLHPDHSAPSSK
T3 sequence (P09483 31-630): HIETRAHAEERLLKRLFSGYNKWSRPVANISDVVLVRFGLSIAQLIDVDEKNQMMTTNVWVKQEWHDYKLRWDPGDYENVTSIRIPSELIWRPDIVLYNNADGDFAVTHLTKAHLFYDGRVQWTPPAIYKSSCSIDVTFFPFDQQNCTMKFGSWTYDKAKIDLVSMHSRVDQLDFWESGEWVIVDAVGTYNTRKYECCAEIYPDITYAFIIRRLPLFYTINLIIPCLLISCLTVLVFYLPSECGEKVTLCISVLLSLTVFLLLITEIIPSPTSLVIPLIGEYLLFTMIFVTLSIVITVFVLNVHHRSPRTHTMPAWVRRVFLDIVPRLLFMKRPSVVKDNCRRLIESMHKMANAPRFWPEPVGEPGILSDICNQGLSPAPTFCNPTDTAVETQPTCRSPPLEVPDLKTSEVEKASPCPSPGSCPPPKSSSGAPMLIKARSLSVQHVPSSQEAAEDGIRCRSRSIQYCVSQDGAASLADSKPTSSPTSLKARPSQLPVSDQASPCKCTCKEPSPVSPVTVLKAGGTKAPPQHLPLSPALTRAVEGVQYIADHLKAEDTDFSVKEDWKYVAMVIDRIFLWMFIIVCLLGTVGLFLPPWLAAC
Source text: as §1

α2β4 nAChR subtype = target: T4, α2β4 nAChR subtype (Rattus norvegicus, UniProt P12389+P12392)
T4 construct: expressed in transfected cells
T4 sequence (P12389 28-511): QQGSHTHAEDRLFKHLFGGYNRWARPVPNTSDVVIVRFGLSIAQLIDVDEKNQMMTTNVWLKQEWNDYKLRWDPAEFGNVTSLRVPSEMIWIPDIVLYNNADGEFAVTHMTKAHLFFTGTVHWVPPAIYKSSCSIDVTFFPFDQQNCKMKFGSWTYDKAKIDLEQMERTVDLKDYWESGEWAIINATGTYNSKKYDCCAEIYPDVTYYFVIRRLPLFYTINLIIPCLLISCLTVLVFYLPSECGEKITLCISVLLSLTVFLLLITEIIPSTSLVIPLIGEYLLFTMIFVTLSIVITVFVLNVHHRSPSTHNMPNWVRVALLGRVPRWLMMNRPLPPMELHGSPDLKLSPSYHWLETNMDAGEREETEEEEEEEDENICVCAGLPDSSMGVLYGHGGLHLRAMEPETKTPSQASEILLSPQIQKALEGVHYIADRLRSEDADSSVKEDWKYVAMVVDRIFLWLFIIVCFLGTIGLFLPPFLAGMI
T4 sequence (P12392 21-495): as the sequence (P12392 21-495) above
Source text: as §1

α4β4 nAChR subtype = target: T5, α4β4 nAChR subtype (Rattus norvegicus, UniProt P09483+P12392)
T5 construct: expressed in transfected cells
T5 sequence (P12392 21-495): as above
T5 sequence (P09483 31-630): as the sequence (P09483 31-630) above
Source text: as §1

α2β2 nAChR subtype = target: T6, α2β2 nAChR subtype (Rattus norvegicus, UniProt P12389+P12390)
T6 construct: expressed in transfected cells
T6 sequence (P12390 25-500): as the sequence (P12390 25-500) above
T6 sequence (P12389 28-511): as the sequence (P12389 28-511) above
Source text: as §1

α3β2 nAChR subtype = target: T7, α3β2 nAChR subtype (Rattus norvegicus, UniProt P04757+P12390)
T7 construct: expressed in transfected cells
T7 sequence (P12390 25-500): as the sequence (P12390 25-500) above
T7 sequence (P04757 26-499): as the sequence (P04757 26-499) above
Source text: as §1

[2] = Table 5; *Rat forebrain, mainly α4β2; read-out: Ki α4β2*
[3] = Table 5, rat nAChR subtypes, read-out: Ki α3β4
[4] = Table 5, rat nAChR subtypes, read-out: Ki α4β2
[5] = Table 5, rat nAChR subtypes, read-out: Ki α2β4
[6] = Table 5, rat nAChR subtypes, read-out: Ki α4β4
[7] = Table 5, rat nAChR subtypes, read-out: Ki α2β2
[8] = Table 5, rat nAChR subtypes, read-out: Ki α3β2
[9] = Ki α3β4, Table 4, bivalent analogues
[10] = Ki α4β2, Table 4, bivalent analogues
[11] = Ki α2β4, Table 4, bivalent analogues
[12] = Ki α4β4, Table 4, bivalent analogues
[13] = Ki α2β2, Table 4, bivalent analogues
[14] = Ki α3β2, Table 4, bivalent analogues
[15] = Ki α4β2*, Table 5; *Rat forebrain, mainly α4β2
[16] = Ki α3β4, Table 5, rat nAChR subtypes
[17] = Ki α4β2, Table 5, rat nAChR subtypes
[18] = Ki α2β4, Table 5, rat nAChR subtypes
[19] = Ki α4β4, Table 5, rat nAChR subtypes
[20] = Ki α2β2, Table 5, rat nAChR subtypes
[21] = Ki α3β2, Table 5, rat nAChR subtypes

T1 sequence (P09483 31-630): as the sequence (P09483 31-630) above
T1 sequence (P12390 25-500): as the sequence (P12390 25-500) above

Molecule: Decane-1,3-N,N′-bisepibatidine [Ligand 59d]
- Ki [1, 2]: 13.9 nM
- Ki (α3β4 nAChR subtype; [3]): 67.7 nM
- Ki (α4β2 nAChR subtype; [4]): 10.3 nM
- Ki (α2β4 nAChR subtype; [5]): 24.2 nM
- Ki (α4β4 nAChR subtype; [6]): 18.7 nM
- Ki (α2β2 nAChR subtype; [7]): 5.78 nM
- Ki (α3β2 nAChR subtype; [8]): 6.75 nM

Molecule: Clc1ccc(C2CC3CCC2N3CCCCCCN2C3CCC2C(c2ccc(Cl)nc2)C3)cn1 (centres unmarked) [Ligand 59c]
- Ki (α3β4 nAChR subtype; [9]): 64.7 nM
- Ki (α4β2 nAChR subtype; [10]): 7.2 nM
- Ki (α2β4 nAChR subtype; [11]): 37.4 nM
- Ki (α4β4 nAChR subtype; [12]): 31.9 nM
- Ki (α2β2 nAChR subtype; [13]): 4.1 nM
- Ki (α3β2 nAChR subtype; [14]): 6.6 nM

Molecule: CCCCC#Cc1cncc(OC[C@@H]2CCCN2C)c1 [Ligand 12, 5-(1-Hexynyl)-3-(1-methyl-2(S)-pyrrolidinylmethoxy)pyridine]
- Ki [1, 2]: 6.81 nM
- Ki (α3β4 nAChR subtype; [3]): 9560 nM
- Ki (α4β2 nAChR subtype; [4]): 2.61 nM
- Ki (α2β4 nAChR subtype; [5]): 1720 nM
- Ki (α4β4 nAChR subtype; [6]): 1410 nM
- Ki (α2β2 nAChR subtype; [7]): 13.4 nM
- Ki (α3β2 nAChR subtype; [8]): 20.3 nM

Molecule: OCCCCC#Cc1cncc(C2CC3CCC2N3)c1 (stereo not drawn) [Ligand 31, 2-exo-(5-(6-Hydroxy-1-hexynyl)-3-pyridyl)-7-azabicyclo[2.2.1]heptane]
- Ki [1, 15]: 0.215 nM
- Ki (α3β4 nAChR subtype; [16]): 266 nM
- Ki (α4β2 nAChR subtype; [17]): 0.166 nM
- Ki (α2β4 nAChR subtype; [18]): 45.1 nM
- Ki (α4β4 nAChR subtype; [19]): 15.4 nM
- Ki (α2β2 nAChR subtype; [20]): 0.352 nM
- Ki (α3β2 nAChR subtype; [21]): 0.146 nM

Molecule: FCCCCC#Cc1cncc(OC[C@@H]2CCN2)c1 [Ligand 41, 5-(6-Fluoro-1-hexynyl)-3-(2(S)-azetidinylmethoxy)pyridine]
- Ki [1, 15]: 0.362 nM
- Ki (α3β4 nAChR subtype; [16]): 5490 nM
- Ki (α4β2 nAChR subtype; [17]): 0.201 nM
- Ki (α2β4 nAChR subtype; [18]): 197 nM
- Ki (α4β4 nAChR subtype; [19]): 118 nM
- Ki (α2β2 nAChR subtype; [20]): 0.796 nM
- Ki (α3β2 nAChR subtype; [21]): 0.635 nM

Molecule: CN1CCC[C@H]1COc1cncc(C#CCNC(=O)OC(C)(C)C)c1 [Ligand 13, 5-(3-tert-Butoxycarbonylamino-1-propynyl)-3-(1-methyl-2(S)-pyrrolidinylmethoxy)pyridine]
- Ki ([1]; read-out: Ki α4β2*; Table 5; *Rat forebrain, mainly α4β2): 3.71 nM
- Ki (α3β4 nAChR subtype; read-out: Ki α3β4, Table 5, rat nAChR subtypes): 59900 nM
- Ki (α4β2 nAChR subtype; read-out: Ki α4β2, Table 5, rat nAChR subtypes): 2.07 nM
- Ki (α2β4 nAChR subtype; read-out: Ki α2β4, Table 5, rat nAChR subtypes): 8240 nM
- Ki (α4β4 nAChR subtype; read-out: Ki α4β4, Table 5, rat nAChR subtypes): 8280 nM
- Ki (α2β2 nAChR subtype; read-out: Ki α2β2, Table 5, rat nAChR subtypes): 1.19 nM
- Ki (α3β2 nAChR subtype; read-out: Ki α3β2, Table 5, rat nAChR subtypes): 7.27 nM

Molecule: O=C1CC2CC(c3ccc(Cl)nc3)C1N2 (racemic) [Ligand 5]
- Ki (α3β4 nAChR subtype; read-out: Ki α3β4): 8870 nM
- Ki (α4β2 nAChR subtype; read-out: Ki α4β2): 2020 nM
- Ki (α2β4 nAChR subtype; read-out: Ki α2β4): 3240 nM
- Ki (α4β4 nAChR subtype; read-out: Ki α4β4): 3560 nM
- Ki (α2β2 nAChR subtype; read-out: Ki α2β2): 1010 nM
- Ki (α3β2 nAChR subtype; read-out: Ki α3β2): 1500 nM

Molecule: Clc1ccc(C2CC3CCC2N3CCN2C3CCC2C(c2ccc(Cl)nc2)C3)cn1 (centres unmarked) [Ligand 59a]
- Ki (α3β4 nAChR subtype; [9]): 11.8 nM
- Ki (α4β2 nAChR subtype; [10]): 10.7 nM
- Ki (α2β4 nAChR subtype; [11]): 2.9 nM
- Ki (α4β4 nAChR subtype; [12]): 18 nM
- Ki (α2β2 nAChR subtype; [13]): 1.3 nM
- Ki (α3β2 nAChR subtype; [14]): 5.6 nM

Molecule: C#Cc1cncc([C@@H]2CCCN2C)c1 [SIB-1508Y, reference compound]
- Ki (α3β4 nAChR subtype; read-out: Ki α3β4): 4430 nM
- Ki (α4β2 nAChR subtype; read-out: Ki α4β2): 7080 nM
- Ki (α2β4 nAChR subtype; read-out: Ki α2β4): 1140 nM
- Ki (α4β4 nAChR subtype; read-out: Ki α4β4): 3240 nM
- Ki (α2β2 nAChR subtype; read-out: Ki α2β2): 642 nM
- Ki (α3β2 nAChR subtype; read-out: Ki α3β2): 1890 nM

Molecule: OCCCCC#Cc1cncc(OC[C@@H]2CCN2)c1 [Ligand 26, 5-(6-Hydroxy-1-hexynyl)-3-(2(S)-azetidinylmethoxy)pyridine]
- Ki (α3β4 nAChR subtype; [16]): 4840 nM
- Ki (α4β2 nAChR subtype; [17]): 0.09 nM
- Ki (α2β4 nAChR subtype; [18]): 269 nM
- Ki (α4β4 nAChR subtype; [19]): 74 nM
- Ki (α2β2 nAChR subtype; [20]): 0.06 nM
- Ki (α3β2 nAChR subtype; [21]): 0.53 nM

Molecule: Clc1ccc(C2CC3CCC2N3CCCN2C3CCC2C(c2ccc(Cl)nc2)C3)cn1 (centres unmarked) [Ligand 59b]
- Ki (α3β4 nAChR subtype; [9]): 62.9 nM
- Ki (α4β2 nAChR subtype; [10]): 8.7 nM
- Ki (α2β4 nAChR subtype; [11]): 15.7 nM
- Ki (α4β4 nAChR subtype; [12]): 23.3 nM
- Ki (α2β2 nAChR subtype; [13]): 6.1 nM
- Ki (α3β2 nAChR subtype; [14]): 5.2 nM

Molecule: Clc1ccc(C2CC3CCC2N3CCCCCCCCCCN2C3CCC2C(c2ccc(Cl)nc2)C3)cn1 (centres unmarked) [Ligand 59d]
- Ki (α3β4 nAChR subtype; [9]): 67.7 nM
- Ki (α4β2 nAChR subtype; [10]): 10.3 nM
- Ki (α2β4 nAChR subtype; [11]): 24.2 nM
- Ki (α4β4 nAChR subtype; [12]): 18.7 nM
- Ki (α2β2 nAChR subtype; [13]): 5.8 nM
- Ki (α3β2 nAChR subtype; [14]): 6.8 nM
